EP0338532A2, “N-alkylamino derivates of aromatic, tricyclic compounds in the treatment of drug-resistant protozoal infections” (priority 1988, dated 1989)

Columns and labels:
[1] = system: P. falciparum (FCR3); assay: [3H]-hypoxanthine incorporation, parasite growth inhibition (chloroquine-resistant strain FCR3); format: cell-based, Plasmodium falciparum
Procedure: P. falciparum (clone D6, chloroquine-sensitive; strain FCR3, chloroquine-resistant; and clone W2, multidrug-resistant) was grown in vitro by the method of Trager and Jensen, (1976) Science 193, 673-675. • Figure 1 illustrates the effect of desipramine on the inhibition of parasite growth. […] Isobologram analysis was carried out according to the method of Martin, et al., (1987) Science 235, 899-901 and Berenbaum, (1978) Journal of Infectious Diseases 137, 122-130. […] The X-axis is the IC₅₀ (concentration of drug which inhibits hypoxanthine incorporation by 50%) of chloroquine in the absence or presence of desipramine while the Y-axis is the IC₅₀ for desipramine in the absence or presence of chloroquine. […] Dose-response curves and IC₅₀'s for chloroquine were determined either in the absence of desipramine or in the presence of a fixed concentration of desipramine ranging from 50 ng desipramine/ml up to 500 ng desipramine/ml. […] Clinically achievable plasma concentrations of desipramine in depressed patients are in the range of 50 - 200 ng/ml. Desipramine (500 ng/ml) lowered the IC₅₀ and IC₉₀ for chloroquine by 10-fold. An IC₅₀ for a chloroquine-sensitive P. falciparum strain would be approximately 5 ng/ml. Therefore in the presence of clinically relevant concentrations of desipramine, the chloroquine-resistant P. falciparum strain is as sensitive to chloroquine as is the "sensitive" strain. • Figure 4 illustrates the ability of desipramine to enhance the potency of chloroquine against P. falciparum (W2). The experiment is identical to that of Figure 3 but a different strain of P. falciparum was used. […] The IC₅₀ and IC₉₀ for chloroquine are lowered by a factor of approximately 10. […] The anti-psycotic, chloropromazine, was substituted for desipramine in an experiment similar to that in Figure 2. • Figure 7. […] Uptake of [3H]-chloroquine was followed in clone D6 (chloroquine susceptible, ·) and in clone W2 (multidrug-resistant, o) in the absence or presence of desipramine.

[2] = system: P. falciparum (W2); format: cell-based, Plasmodium falciparum
Procedure: (§1) P. falciparum (clone D6, chloroquine-sensitive; strain FCR3, chloroquine-resistant; and clone W2, multidrug-resistant) was grown in vitro by the method of Trager and Jensen, (1976) Science 193, 673-675. • Figure 1 illustrates the effect of desipramine on the inhibition of parasite growth. […] Isobologram analysis was carried out according to the method of Martin, et al., (1987) Science 235, 899-901 and Berenbaum, (1978) Journal of Infectious Diseases 137, 122-130. […] The X-axis is the IC₅₀ (concentration of drug which inhibits hypoxanthine incorporation by 50%) of chloroquine in the absence or presence of desipramine while the Y-axis is the IC₅₀ for desipramine in the absence or presence of chloroquine. […] Dose-response curves and IC₅₀'s for chloroquine were determined either in the absence of desipramine or in the presence of a fixed concentration of desipramine ranging from 50 ng desipramine/ml up to 500 ng desipramine/ml. […] Clinically achievable plasma concentrations of desipramine in depressed patients are in the range of 50 - 200 ng/ml. Desipramine (500 ng/ml) lowered the IC₅₀ and IC₉₀ for chloroquine by 10-fold. An IC₅₀ for a chloroquine-sensitive P. falciparum strain would be approximately 5 ng/ml. […]

[3] = system: chloroquine-susceptible clone D6 of P. falciparum; assay: [3H]-hypoxanthine incorporation, parasite growth inhibition (chloroquine-susceptible clone D6); format: cell-based, Plasmodium falciparum; settings: Figure 5, experiment similar to Figures 3 and 4
Procedure: as §1

[4] = system: clone W2 (multidrug-resistant); assay: Uptake of [3H]-chloroquine by parasites (clone W2); format: cell-based, P. falciparum; settings: Figure 7; drug-resistant parasites, presence vs absence of desipramine
Procedure: as §1

[5] = depressed patients; cited from earlier work
[6] = system: chloroquine-sensitive P. falciparum strain; settings: stated as 'would be approximately'; cited from earlier work
[7] = Figure 3, desipramine 500 ng/ml, FCR3

## CNCCCN1c2ccccc2CCc2ccccc21 [desipramine, Desipramine]
[1]; [7]
  lowering of the IC50 for chloroquine: 10 fold
  lowering of the IC90 for chloroquine: 10 fold
[2]; Figure 4, at the desipramine concentrations used, without chloroquine
  effects on P. falciparum when desipramine was added alone: only slight effects
[2]; W2 compared with FCR3
  sensitivity of the strain to desipramine: more sensitive
[3]
  change of the response to chloroquine: does not change the response
[4]
  accumulation of chloroquine by parasites: increases the accumulation of chloroquine
[5]
  Clinically achievable plasma concentrations: 50 to 200 ng/mL

## CCN(CC)CCCC(C)Nc1ccnc2cc(Cl)ccc12 (stereo not drawn) [chloroquine]
[6]
  IC50: approximately 5 ng/ml

## CN(C)CCCN1c2ccccc2Sc2ccc(Cl)cc21 [chloropromazine]
[1]; Figure 6, experiment similar to Figure 2, combination with chloroquine
  synergism of chloropromazine and chloroquine (isobologram): synergism
